In patent US8633245B2, “PAI-1 inhibitor” (Institute of Medicinal Molecular Design, Inc., priority 2008, dated 2014):

Target: T1, recombinant human PAI-1 (Homo sapiens, UniProt P05121)
T1 construct: purchased Molecular Innovations, Inc
Assay: Test Example 1: human PAI-1 inhibitory activity (tPA fluorogenic substrate, pH 7.5 Tris buffer)
Type: biochemical
Settings: Tris buffer
Experimental: 50 mM Tris, 150 mM NaCl, 10 μg/ml BSA, 0.01% Tween80 (SIGMA-ALDRICH Corporation)

T1 sequence (P05121 24-402): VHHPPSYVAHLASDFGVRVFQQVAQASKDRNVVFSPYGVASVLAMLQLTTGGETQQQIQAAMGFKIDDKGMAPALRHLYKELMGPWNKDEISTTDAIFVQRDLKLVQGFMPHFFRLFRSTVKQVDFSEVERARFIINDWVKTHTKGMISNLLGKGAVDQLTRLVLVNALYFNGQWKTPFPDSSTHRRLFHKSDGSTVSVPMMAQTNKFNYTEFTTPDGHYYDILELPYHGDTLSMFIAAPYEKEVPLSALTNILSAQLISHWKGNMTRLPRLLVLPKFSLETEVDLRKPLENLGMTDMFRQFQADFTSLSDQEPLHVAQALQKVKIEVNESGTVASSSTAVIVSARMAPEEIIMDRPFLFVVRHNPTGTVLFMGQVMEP

Row | SMILES | Inhibition Rate of PAI-1 Activity (%) (Compound Concentration 5 μM) | Inhibition Rate of PAI-1 Activity (%) (Compound Concentration 10 μM) | Inhibition Rate of PAI-1 Activity (%) (Compound Concentration 25 μM)
1 | CC(C)(C)c1ccc(N(C(=O)C(=O)O)c2ccccc2-c2ccc(OC(F)(F)F)cc2)cc1 [Compound 157] | 25 | 56 | 96
2 | CC(C)(C)c1ccc(CN(C(=O)C(=O)O)c2ccc(-c3ccc(OC(F)(F)F)cc3)cc2)cc1 [Compound 133] | 80 | 92 | 
3 | CCCOc1ccc(N(CCCc2ccccc2)C(=O)C(=O)O)cc1-c1ccc(OC(F)(F)F)cc1 [Compound 229] | 48 | 80 | 94
4 | CC(C)(C)c1ccc(COc2ccc(-c3ccccc3OC(F)(F)F)cc2/C=C/C(=O)O)cc1 [Compound 65] | 42 | 72 | 93
5 | O=C(O)CCc1cc(-c2ccc(OC(F)(F)F)cc2)ccc1OCc1ccc(OC(F)(F)F)cc1 [Compound 62] | 29 | 62 | 99
6 | CC(C)(C)c1ccc(Oc2ccc(Oc3ccc(OC(F)(F)F)cc3)cc2C=CC(=O)O)cc1 [Compound 99] | 31 | 66 | 99
7 | CC(C)(C)c1ccc(CN(C(=O)C(=O)O)c2ccc(-c3cccc(OC(F)(F)F)c3)cc2)cc1 [Compound 200] | 64 | 89 | 92
8 | CSc1ccc(-c2ccc(OCc3ccc(C(C)(C)C)cc3)c(/C=C/C(=O)O)c2)cc1 [Compound 44] | 16 | 25 | 21
9 | CC(C)(C)c1ccc(N(C(=O)C(=O)O)c2ccc(Oc3ccc(OC(F)(F)F)cc3)cc2)cc1 [Compound 165] | 27 | 64 | 96
10 | CCCCc1ccc(-c2ccc(OCc3ccc(C(C)(C)C)cc3)c(CCC(=O)O)c2)cc1 [Compound 43] | 29 | 66 | 94
11 | CC(C)(C)c1ccc(CN(C(=O)C(=O)O)c2ccc(Oc3ccc(OC(F)(F)F)cc3)cc2)cc1 [Compound 132] |  | 32 | 82
12 | O=C(O)COc1cc(-c2ccc(OC(F)(F)F)cc2)ccc1OCCCCc1ccccc1 [Compound 115] | 34 | 59 | 90
13 | CC(C)c1ccc(Oc2ccc(/C=C/C(=O)O)c(Oc3ccc(C(C)C)cc3)c2)cc1 [Compound 72] | 32 | 72 | 98
14 | CC(C)(C)c1ccc(CN(C(=O)C(=O)O)c2ccc(C(F)(F)F)cc2-c2ccc(OC(F)(F)F)cc2)cc1 [Compound 169] | 59 | 91 | 84
15 | CC(C)(C)c1ccc(-c2ccc(OCc3ccc(C(F)(F)F)cc3)c(CCC(=O)O)c2)cc1 [Compound 70] | 47 | 71 | 95
16 | CC(C)(Nc1cc(-c2ccc(OC(F)(F)F)cc2)ccc1OCc1ccc(C(C)(C)C)cc1)C(=O)O [Compound 420] | 42 | 64 | 83
17 | CC(C)(C)c1ccc(-c2ccc(N(Cc3ccc(OC(F)(F)F)cc3)C(=O)C(=O)O)cc2)cc1 [Compound 162] | 30 | 74 | >99
18 | CC(C)(C)c1ccc(COc2ccc(-c3ccc(C(F)(F)F)cc3)cc2CCC(=O)O)cc1 [Compound 36] | 23 | 60 | 99
19 | CC(C)(C)c1ccc(COc2ccc(-c3ccc(C(F)(F)F)cc3)cc2/C=C/C(=O)O)cc1 [Compound 35] | 28 | 57 | 95
20 | CC(C)(C)Oc1ccc(N(CCCCc2ccccc2)C(=O)C(=O)O)cc1-c1ccc(OC(F)(F)F)cc1 [Compound 249] | 68 | 89 | 
21 | CC(C)(C)c1ccc(CN(C(=O)C(=O)O)c2ccc(Cl)cc2Oc2ccc(OC(F)(F)F)cc2)cc1 [Compound 191] | 74 | 92 | 87
22 | CC(C)(C)c1ccc(COc2ccc(-c3cccc(OC(F)(F)F)c3)cc2/C=C/C(=O)O)cc1 [Compound 63] | 38 | 72 | 93
23 | CC(C)(C)c1ccc(COc2ccc(-c3ccccc3)cc2CCC(=O)O)cc1 [Compound 32] | 22 | 47 | 97
24 | COc1ccc(-c2ccc(OC(F)(F)F)cc2)cc1N(Cc1ccc(C(C)(C)C)cc1)C(=O)C(=O)O [Compound 182] | 56 | 85 | 89
25 | O=C(O)C(=O)N(Cc1ccccc1)c1ccc(Oc2ccc(OC(F)(F)F)cc2)cc1 [Compound 154] |  | 3 | 20
26 | CC(C)(C)c1ccc(CN(C(=O)C(=O)O)c2ccc(N3CCCCC3=O)c(-c3ccc(OC(F)(F)F)cc3)c2)cc1 [Compound 219] | 33 | 58 | 86
27 | CC(C)(C)c1ccc(CN(C(=O)C(=O)O)c2cccc(OCc3ccc(OC(F)(F)F)cc3)c2)cc1 [Compound 619] | 48 | 83 | 92
